Laboratory results: US20130012404A1, “CULTURE METHOD, EVALUATION METHOD AND STORAGE METHOD FOR CANCER-TISSUE-DERIVED CELL MASS OR AGGREGATED CANCER CELL MASS” (Osaka Prefectural Hospital Organization, priority 2010, published 2013)

Legend:
[1] = system: cell mass derived from the cancer tissue (surgical specimens of human colon cancer, Example 2); assay: Drug sensitivity test with 5-FU on cancer tissue-derived cell masses embedded in collagen gel; assay type: cell-based; conditions: 5-FU 0.01, 0.1, 1, 10 and 100 μg/ml; day 8 after culture vs day 0; FIG. 4
Procedure: Using 5-FU which is known to inhibit DNA synthesis by binding to a thymidylic acid synthetase involved in the metabolism process necessary for DNA synthesis, a drug sensitivity test on a sample of Example 2 was carried out. The test was carried out by embedding the cell masses (×10 each) derived from the cancer tissue in a collagen gel (CellMatrix type IA (Nitta Gelatin Inc.):5×DMEM (Gibco; 12100-038):buffer solution for gel reconstruction (50 mM NaOH, 260 mM NaHCO3, 200 mM HEPES)=7:2:1), and culturing in 1 cc of STEMPRO serum-free medium (Gibco) for human ES cells in an incubator under the culture conditions of 37° C. and 5% CO2. In addition, 5-FU was applied at a concentration of 0.01 μg/ml, 0.1 μg/ml, 1 μg/ml, 10 μg/ml, and 100 μg/ml, and the states of the cells on days 0 and 8 after culture were compared for evaluation. An increasing rate of the area of the cell mass derived from the cancer tissue was expressed relative to 1 of an increasing rate of the area of the cell mass in the culture without application of a drug.

[2] = system: aggregated cancer cell mass; assay: Drug sensitivity test with doxorubicin on aggregated cancer cell masses embedded in collagen gel; assay type: cell-based; conditions: doxorubicin 0.1, 1 and 10 μM; day 8 after culture initiation vs day 0; FIG. 14
Procedure: Using doxorubicin that is known to exert an antitumor effect by suppressing the biosynthesis of both DNA and RNA as a result of inhibiting the reaction of DNA polymerase, RNA polymerase, and topoisomerase II due to the insertion of doxorubicin between the base pairs of DNA of tumor cells, a drug sensitivity test was carried out by the sample of Example 12. The test was carried out by embedding the aggregated cancer cell mass (×10 each) in collagen gel (CellMatrix type IA (Nitta Gelatin):5×DMEM (Gibco; 12100-038):buffer solution for gel reconstruction (50 mM NaOH, 260 mM NaHCO3, 200 mM HEPES)=7:2:1) and carrying out culture in 1 cc of a STEMPRO human ES cell serum-free medium (Gibco) under the culture conditions of a temperature of 37° C. in 5% CO2 incubator. In addition, doxorubicin was applied at a concentration of 0.1 μM, 1 μM, and 10 μM, and the states on day 0 and on day […] were compared for evaluation. An increasing rate of the area of the aggregated cancer cell mass was relatively expressed when an increasing rate of the area of the cell mass in the culture without application of a drug was determined to be 1.

| SMILES | proliferation of the cancer cell (increasing rate of the area of the cell mass relative to 1 without drug) [1] | proliferation of the cancer cell (increasing rate of the area of the aggregated cancer cell mass relative to 1 without drug) [2] |
| --- | --- | --- |
| O=c1[nH]cc(F)c(=O)[nH]1 [5-FU] | concentration-dependently suppressed |  |
| COc1cccc2c1C(=O)c1c(O)c3c(c(O)c1C2=O)C[C@@](O)(C(=O)CO)C[C@@H]3O[C@H]1C[C@H](N)[C@H](O)[C@H](C)O1 [doxorubicin] |  | concentration-dependently suppressed |
